Data reported in patent US12625142B2, “Assay for measuring binding affinity for cardiolipin of biologically active compounds” (Latvian Institute of Organic Synthesis, priority 2020, dated 2026).
Counter-ions that a name gives are not always drawn.

Assay: competition binding assay for cardiolipin with fluorescent probe I and CL-DOPC liposomes (25:75 mol %)
Details: for EC50: 20 mM HEPES buffer, 2.5 μM CL, 5 μM I, means ± S.D. from 3 independent experiments; for EC50 range (in words): pH 7.4 and 6.8; for relative binding affinity for CL within the studied set (in words): comparison of EC50 values; for effect of pH change on interaction with CL: pH 7.4 versus 6.8
Procedure: Lipid vesicles may be composed of CL and a helper phospholipid (preferentially a phosphatidylcholine) or may have a more complex composition with several phospholipids, provided that the formulation is stable in the used medium. […] [18]
Final concentration of the fluorescent probe I may range from 0.2 μM to 25 μM. Optimal incubation temperature is 37° C. because it represents physiological temperature and allows shortening of the incubation time.
A fluorimeter is required that is capable of scanning emission intensity at a desired wavelength, as well as a plate shaker-thermostat. Assay is carried out in 96-well microplates for fluorescence-based assays. […]
Also place a triplicate of CL containing lipid vesicles without a ligand (vehicle); • 3. Place the 96-well microplate in a plate shaker-thermostat for 10 min (500 RPM, 37° C.). • 4. Add appropriate amount of I stock solution (I final concentration 5 μM) to the wells, including wells containing vehicle, and mix gently with a micro pipette by sucking the solution gently up and down (approximately 5 times); • 5. Incubate for 15 min in a plate shaker-thermostat (500 RPM, 37° C.); • 6. Measure fluorescence intensity at an excitation and emission wavelength of 497 and 529 nm, respectively; • 7. […] Plot the normalized fluorescence intensity against the concentration of the ligand on a logarithmic scale; • 9. Fit the titration curve with a suitable fitting model to calculate EC50 values.

Compound | EC50 (pH = 7.4) [µM] | EC50 (pH = 6.8) [µM] | further results
Cl.N [Example 2, Ammonium chloride] | 31853 ± 2.3 | – | fold lower affinity for CL than Ca^2+ ions (pH 7.4, 20 mM HEPES, FIG. 1B): 23 fold
CCCCCCCCC[P+](c1ccccc1)(c1ccccc1)c1ccccc1.[Br-] [Example 13, Nonyltriphenylphosphonium bromide] | 19.8 ± 0.75 | 36.6 ± 2.93 | EC50 range (in words) (20 mM HEPES): micromolar range; relative binding affinity for CL within the studied set (in words) (20 mM HEPES): lower affinities than studied aminoglycosides or anthracyclines; affinity for CL higher than that of dodecyltrimethylammonium chloride (pH 7.4, 20 mM HEPES, FIG. 2A): ≈ 30%; effect of pH change on interaction with CL: affected by changes of pH
NC[C@H]1O[C@H](O[C@H]2[C@H](O)[C@@H](O[C@H]3O[C@H](CO)[C@@H](O)[C@H](N)[C@H]3O)[C@H](N)C[C@@H]2N)[C@H](N)C[C@@H]1O [Example 12, (2S,3R,4S,5S,6R)-4-amino-2-{[(1S,2S,3R,4S,6R)-4,6-diamino-3-{[(2R,3R,5S,6R)-3-amino-6-(aminomethyl)-5-hydroxyoxan-2-yl]oxy}-2-hydroxycyclohexyl]oxy}-6-(hydroxymethyl)oxane-3,5-diol] | 4.37 ± 0.32 | – | –
[H]/N=C(/N)N[C@H]1[C@H](O)[C@@H](O)[C@H](O[C@@H]2O[C@@H](C)[C@](O)(C=O)[C@H]2O[C@@H]2O[C@@H](CO)[C@H](O)[C@@H](O)[C@@H]2NC)[C@@H](N/C(N)=N\[H])[C@@H]1O [Example 10, 2-[(1R,2R,3S,4R,5R,6S)-3-(diaminomethyldeneamino)-4-[(2R,3R,4R,5S)-3-[(2S,3S,4S,5R,6S)-4,5-dihydroxy-6-(hydroxymethyl)-3-(methylamino)oxan-2-yl]oxy-4-formyl-4-hydroxy-5-methyloxolan-2-yl]oxy-2,5,6-trihydroxycyclohexyl]guanidine] | 9.82 ± 1.76 | – | relative binding affinity for CL within the studied set (in words) (20 mM HEPES, listed as streptomycin): lowest affinity for CL
(2R,3R,4S,5S,6S)-5-amino (((2R,3S,4R,4aR,6S,7R,8aS)-7-amino-6-(((1R,2R,3S,4R,6S)-4,6-diamino-2,3-dihydroxycyclohexyl)oxy)-4-hydroxy-3-(methylamino)octahydropyrano[3,2-b]pyran-2-yl)oxy)-6-(hydroxymethyl)tetrahydro-2H-pyran-3,4-diol sulfate [Example 9] | 3.34 ± 0.95 | – | –
[Ca+2].[Cl-].[Cl-] [Example 3, Calcium chloride] | 1334 ± 10.1 | 1290 ± 130 | lower EC50 than Mg^2+ (pH 7.4, 20 mM HEPES, FIG. 1B): ≈ 30%
Cytochrome c [Example 1] | 0.32 ± 0.06 | 0.28 ± 0.02 | relative binding affinity for CL within the studied set (in words) (20 mM HEPES): the highest binding affinity for CL
CCCCCCCCCCCC[N+](C)(C)C.[Cl-] [Example 14, Dodecyltrimethylammonium chloride] | 30.7 ± 2.75 | 74.4 ± 8.47 | EC50 range (in words) (20 mM HEPES): micromolar range; relative binding affinity for CL within the studied set (in words) (20 mM HEPES): lower affinities than studied aminoglycosides or anthracyclines; effect of pH change on interaction with CL: affected by changes of pH
[Cl-].[Cl-].[Mg+2] [Example 4, Magnesium chloride] | 1930 ± 20.5 | – | –
COc1cccc2c1C(=O)c1c(O)c3c(c(O)c1C2=O)C[C@@](O)(C(C)=O)C[C@@H]3O[C@H]1C[C@H](N)[C@H](O)[C@H](C)O1 [Example 6, (8S,10S)-8-acetyl-10-(((2R,4S,5S,6S)-4-amino-5-hydroxy-6-methyltetrahydro-2H-pyran-2-yl)oxy)-6,8,11-trihydroxy-1-methoxy-7,8,9,10-tetrahydrotetracene-5,12-dione hydrochloride] | 4.35 ± 1.25 | – | –
COc1cccc2c1C(=O)c1c(O)c3c(c(O)c1C2=O)C[C@@](O)(C(=O)CO)C[C@@H]3O[C@H]1C[C@H](N)[C@@H](O)[C@H](C)O1 [Example 5, (8S,10S)-10-(((2R,4S,5R,6S)-4-amino-5-hydroxy-6-methyltetrahydro-2H-pyran-2-yl)oxy)-6,8,11-trihydroxy-8-(2-hydroxyacetyl)-1-methoxy-7,8,9,10-tetrahydrotetracene-5,12-dione hydrochloride] | 6.94 ± 0.9 | 5.86 ± 0.25 | –
